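A five-concentration, 48-hour dose response in 96-well plates underlies each endpoint, interpolated linearly between surrounding concentrations. Here, GI50 denotes the concentration required for 50% inhibition of growth.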 Calls of active or inactive are those of the source. Cut-off read from the data, not from the text of the source: active = GI50 up to about 1.1 µM and inactive = higher.
What was measured:
Assay in all cases: growth of human tumour cells (NCI), 48 h
EKVX = system: EKVX
NCI-H226 = system: NCI-H226
MOLT-4 = system: MOLT-4
SK-OV-3 = system: SK-OV-3
SK-MEL-2 = system: SK-MEL-2
SK-MEL-28 = system: SK-MEL-28
SK-MEL-5 = system: SK-MEL-5
COLO 205 = system: COLO 205
786-0 = system: 786-0
HCT-116 = system: HCT-116
A549 = system: A549
U-251 = system: U-251
SN12C = system: SN12C
M14 = system: M14
BT-549 = system: BT-549
SNB-75 = system: SNB-75
OVCAR-3 = system: OVCAR-3
SF-295 = system: SF-295
HOP-62 = system: HOP-62
SW-620 = system: SW-620
NCI-H522 = system: NCI-H522
T47D = system: T47D
UACC-257 = system: UACC-257
NCI-H23 = system: NCI-H23
Hs-578T = system: Hs-578T
HCT-15 = system: HCT-15
IGROV-1 = system: IGROV-1
K562 = system: K562
A498 = system: A498
TK-10 = system: TK-10
NCI-H460 = system: NCI-H460
SNB-19 = system: SNB-19
HT-29 = system: HT-29
MDA-MB-435 = system: MDA-MB-435
CAKI-1 = system: CAKI-1
SF-268 = system: SF-268
MDA-MB-231 = system: MDA-MB-231
SR = system: SR
ACHN = system: ACHN
KM12 = system: KM12
PC-3 = system: PC-3
OVCAR-4 = system: OVCAR-4
NCI/ADR-RES = system: NCI/ADR-RES
RXF 393 = system: RXF 393
UACC-62 = system: UACC-62
SF-539 = system: SF-539
OVCAR-8 = system: OVCAR-8
RPMI-8226 = system: RPMI-8226
LOX IMVI = system: LOX IMVI
UO-31 = system: UO-31
MDA-N = system: MDA-N
HL-60 = system: HL-60
OVCAR-5 = system: OVCAR-5
CCRF-CEM = system: CCRF-CEM
HCC 2998 = system: HCC 2998
MCF7 = system: MCF7
Malme-3M = system: Malme-3M
DU-145 = system: DU-145
HOP-92 = system: HOP-92

Compound: CC(=O)N1CC[N+](C)(CCCCN2c3ccccc3Sc3cc(N=[N+]=[N-])ccc32)CC1
- GI50 (EKVX): > 100 µM (inactive)
- GI50 (NCI-H226): > 100 µM (inactive)
- GI50 (MOLT-4): > 100 µM (inactive)
- GI50 (SK-OV-3): > 100 µM (inactive)
- GI50 (SK-MEL-2): > 100 µM (inactive)
- GI50 (SK-MEL-28): > 100 µM (inactive)
- GI50 (SK-MEL-5): 62.8 µM (inactive)
- GI50 (COLO 205): > 100 µM (inactive)
- GI50 (786-0): > 100 µM (inactive)
- GI50 (HCT-116): > 100 µM (inactive)
- GI50 (A549): > 100 µM (inactive)
- GI50 (U-251): > 100 µM (inactive)
- GI50 (SN12C): > 100 µM (inactive)
- GI50 (M14): > 100 µM (inactive)
- GI50 (BT-549): > 100 µM (inactive)
- GI50 (SNB-75): > 100 µM (inactive)
- GI50 (OVCAR-3): > 100 µM (inactive)
- GI50 (SF-295): > 100 µM (inactive)
- GI50 (HOP-62): > 100 µM (inactive)
- GI50 (SW-620): > 100 µM (inactive)
- GI50 (NCI-H522): > 100 µM (inactive)
- GI50 (T47D): > 100 µM (inactive)
- GI50 (UACC-257): > 100 µM (inactive)
- GI50 (NCI-H23): > 100 µM (inactive)
- GI50 (Hs-578T): 75.9 µM (inactive)
- GI50 (HCT-15): > 100 µM
- GI50 (IGROV-1): > 100 µM (inactive)
- GI50 (K562): 49.8 µM (inactive)
- GI50 (A498): > 100 µM (inactive)
- GI50 (TK-10): > 100 µM (inactive)
- GI50 (NCI-H460): > 100 µM (inactive)
- GI50 (SNB-19): > 100 µM (inactive)
- GI50 (HT-29): > 100 µM (inactive)
- GI50 (MDA-MB-435): > 100 µM (inactive)
- GI50 (CAKI-1): > 100 µM (inactive)
- GI50 (SF-268): > 100 µM (inactive)
- GI50 (MDA-MB-231): > 100 µM (inactive)
- GI50 (SR): > 100 µM (inactive)
- GI50 (ACHN): > 100 µM (inactive)
- GI50 (KM12): > 100 µM (inactive)
- GI50 (PC-3): > 100 µM (inactive)
- GI50 (OVCAR-4): 18 µM (inactive)
- GI50 (NCI/ADR-RES): > 100 µM (inactive)
- GI50 (RXF 393): > 100 µM (inactive)
- GI50 (UACC-62): > 100 µM (inactive)
- GI50 (SF-539): > 100 µM (inactive)
- GI50 (OVCAR-8): > 100 µM (inactive)
- GI50 (RPMI-8226): > 100 µM (inactive)
- GI50 (LOX IMVI): > 100 µM (inactive)
- GI50 (UO-31): > 100 µM (inactive)
- GI50 (MDA-N): > 100 µM (inactive)
- GI50 (HL-60): 86.5 µM (inactive)
- GI50 (OVCAR-5): > 100 µM (inactive)
- GI50 (CCRF-CEM): > 100 µM (inactive)
- GI50 (HCC 2998): > 100 µM (inactive)
- GI50 (MCF7): > 100 µM (inactive)
- GI50 (Malme-3M): > 100 µM (inactive)
- GI50 (DU-145): > 100 µM (inactive)

Compound: CCOC(=O)CC1(Cc2ccc(OCc3ccccc3)cc2)C(=O)OC(c2ccccc2)N1C(=O)c1ccccc1 (stereo not given)
- GI50 (EKVX): > 100 µM (inactive)
- GI50 (NCI-H226): > 100 µM (inactive)
- GI50 (MOLT-4): > 100 µM (inactive)
- GI50 (SK-OV-3): > 100 µM (inactive)
- GI50 (SK-MEL-2): > 100 µM (inactive)
- GI50 (SK-MEL-28): > 100 µM (inactive)
- GI50 (SK-MEL-5): > 100 µM (inactive)
- GI50 (COLO 205): > 100 µM (inactive)
- GI50 (786-0): > 100 µM (inactive)
- GI50 (HCT-116): > 100 µM (inactive)
- GI50 (A549): > 100 µM (inactive)
- GI50 (U-251): > 100 µM (inactive)
- GI50 (SN12C): > 100 µM (inactive)
- GI50 (M14): > 100 µM (inactive)
- GI50 (BT-549): > 100 µM (inactive)
- GI50 (OVCAR-3): > 100 µM (inactive)
- GI50 (SF-295): > 100 µM (inactive)
- GI50 (HOP-62): > 100 µM (inactive)
- GI50 (SW-620): > 100 µM (inactive)
- GI50 (HOP-92): > 100 µM (inactive)
- GI50 (NCI-H522): > 100 µM (inactive)
- GI50 (T47D): > 100 µM (inactive)
- GI50 (UACC-257): > 100 µM (inactive)
- GI50 (NCI-H23): > 100 µM (inactive)
- GI50 (Hs-578T): > 100 µM (inactive)
- GI50 (HCT-15): > 100 µM
- GI50 (IGROV-1): > 100 µM (inactive)
- GI50 (K562): > 100 µM (inactive)
- GI50 (TK-10): > 100 µM (inactive)
- GI50 (NCI-H460): 21.5 µM (inactive)
- GI50 (SNB-19): > 100 µM (inactive)
- GI50 (HT-29): > 100 µM (inactive)
- GI50 (MDA-MB-435): > 100 µM (inactive)
- GI50 (CAKI-1): > 100 µM (inactive)
- GI50 (SF-268): > 100 µM (inactive)
- GI50 (MDA-MB-231): 68.9 µM (inactive)
- GI50 (SR): > 100 µM (inactive)
- GI50 (ACHN): > 100 µM (inactive)
- GI50 (KM12): > 100 µM (inactive)
- GI50 (PC-3): > 100 µM (inactive)
- GI50 (OVCAR-4): > 100 µM (inactive)
- GI50 (NCI/ADR-RES): > 100 µM (inactive)
- GI50 (RXF 393): > 100 µM (inactive)
- GI50 (UACC-62): > 100 µM (inactive)
- GI50 (SF-539): > 100 µM (inactive)
- GI50 (OVCAR-8): > 100 µM (inactive)
- GI50 (RPMI-8226): > 100 µM (inactive)
- GI50 (LOX IMVI): > 100 µM (inactive)
- GI50 (UO-31): 45.5 µM (inactive)
- GI50 (MDA-N): > 100 µM (inactive)
- GI50 (HL-60): > 100 µM (inactive)
- GI50 (OVCAR-5): > 100 µM (inactive)
- GI50 (CCRF-CEM): > 100 µM (inactive)
- GI50 (HCC 2998): 28 µM (inactive)
- GI50 (MCF7): > 100 µM (inactive)
- GI50 (Malme-3M): > 100 µM (inactive)
- GI50 (DU-145): > 100 µM (inactive)

From ChEMBL document CHEMBL1201862, “PubChem BioAssay data set” (2004)
